Assay results as given in US20080139574A1, “Novel quinoline derivatives” (CADILA HEALTHCARE LIMITED, priority 2006, published 2008).
Converted amounts (≈) assume the structure as drawn.

Key:
ATCC 700603 = experiment: In vitro MIC, broth micro dilution; format: cell-based; conditions: ATCC700603; Staphylococcus pyogens ATCC 700603
Protocol: (§1) The in vitro (MIC) antibacterial activity of the compounds against susceptible Gram-positive, multidrug resistant Gram-positive and Gram-negative was tested as growth inhibition with the use of broth micro dilution method according to the guidelines of Clinical and Laboratory Standards Institute (formerly National Committee for Clinical Laboratory Standards). Compounds were dissolved in DMSO and water was added to get stock solution in 80% DMSO. The working solution was prepared by diluting the stock solution 1:10 times in 4-8% DMSO in water or medium, and the dissolved compounds were evaluated in the concentrations of 0.125, 0.25, 0.5, 1, 2, 4, 8, and 16 μg/mL and the concentration was finally expressed in μM.

[1] = system: Bacillus cereus ATCC 11778; experiment: In vitro MIC, broth micro dilution; format: cell-based; conditions: ATCC11778
Protocol: as §1

[2] = system: Bacillus pumilis ATCC 14884; experiment: In vitro MIC, broth micro dilution; format: cell-based; conditions: ATCC14884
Protocol: as §1

[3] = system: Enterococcus faecalis ATCC 14506; experiment: In vitro MIC, broth micro dilution; format: cell-based; conditions: ATCC14506
Protocol: as §1

[4] = system: Enterococcus faecalis ATCC 35550; experiment: In vitro MIC, broth micro dilution; format: cell-based; conditions: ATCC35550
Protocol: as §1

[5] = system: Enterococcus faecalis ATCC 700802; experiment: In vitro MIC, broth micro dilution; format: cell-based; conditions: ATCC700802
Protocol: as §1

[6] = system: Enterococcus faecium ATCC 51559; experiment: In vitro MIC, broth micro dilution; format: cell-based; conditions: ATCC51559
Protocol: as §1

[7] = system: Enterococcus faecium ATCC 700221; experiment: In vitro MIC, broth micro dilution; format: cell-based; conditions: ATCC700221
Protocol: as §1

[8] = system: Klebsiella pneumoniae ATCC 10031; experiment: In vitro MIC, broth micro dilution; format: cell-based; conditions: ATCC10031
Protocol: as §1

[9] = system: Klebsiella pneumoniae ATCC 700571; experiment: In vitro MIC, broth micro dilution; format: cell-based; conditions: ATCC700571
Protocol: as §1

[10] = system: Pseudomonas aeruginosa ATCC 27853; experiment: In vitro MIC, broth micro dilution; format: cell-based; conditions: ATCC27853
Protocol: as §1

[11] = system: Staphylococcus aureus ATCC 14154; experiment: In vitro MIC, broth micro dilution; format: cell-based; conditions: ATCC14154
Protocol: as §1

[12] = system: Staphylococcus aureus ATCC 25923; experiment: In vitro MIC, broth micro dilution; format: cell-based; conditions: ATCC25923
Protocol: as §1

[13] = system: Staphylococcus aureus ATCC 29213; experiment: In vitro MIC, broth micro dilution; format: cell-based; conditions: ATCC29213
Protocol: as §1

[14] = system: Staphylococcus aureus ATCC 700699; experiment: In vitro MIC, broth micro dilution; format: cell-based; conditions: ATCC700699
Protocol: as §1

[15] = system: Staphylococcus aureus ATCC 9144; experiment: In vitro MIC, broth micro dilution; format: cell-based; conditions: ATCC9144
Protocol: as §1

[16] = system: Staphylococcus epidermidis ATCC 155; experiment: In vitro MIC, broth micro dilution; format: cell-based; conditions: ATCC155
Protocol: as §1

[17] = system: Streptococcus pneumoniae ATCC 700904; experiment: In vitro MIC, broth micro dilution; format: cell-based; conditions: ATCC700904
Protocol: as §1

[18] = system: Streptococcus pyogens ATCC 14289; experiment: In vitro MIC, broth micro dilution; format: cell-based; conditions: ATCC14289
Protocol: as §1

in vivo = conditions: male, Sprague-Dawley, rat, po, 30 mg/kg

| Compound | MIC (ATCC 700603) | MIC [1] | MIC [2] | MIC [3] | MIC [4] | MIC [5] | MIC [6] | MIC [7] | MIC [8] | MIC [9] | MIC [10] | MIC [11] | MIC [12] | MIC [13] | MIC [14] | MIC [15] | MIC [16] | MIC [17] | MIC [18] | AUC (in vivo) | other results |
| --- | --- | --- | --- | --- | --- | --- | --- | --- | --- | --- | --- | --- | --- | --- | --- | --- | --- | --- | --- | --- | --- |
| COc1ccc2c(c1)CCC(CN1CCN(c3cc4c(cc3F)c(=O)c(C(=O)O)cn4C3CC3)CC1)C2=O (centres unmarked) [Compound 1, 1-Cyclopropyl-6-fluoro-7-[4-(6-methoxy-1-oxo-1,2,3,4-tetrahydro-naphthalen-2-ylmethyl)-piperazin-1-yl]-4-oxo-1,4-dihydro-quinoline-3-carboxylic acid] | 12.5 µM (≈ 6.49 µg/mL) | 3.12 µM (≈ 1.62 µg/mL) | 1.56 µM (≈ 0.812 µg/mL) | 12.5 µM (≈ 6.49 µg/mL) | 3.12 µM (≈ 1.62 µg/mL) | 12.5 µM (≈ 6.49 µg/mL) | > 50 µM | 25 µM (≈ 13 µg/mL) | ≤ 0.391 µM | 6.25 µM (≈ 3.25 µg/mL) | 3.12 µM (≈ 1.62 µg/mL) | 1.56 µM (≈ 0.812 µg/mL) | 1.56 µM (≈ 0.812 µg/mL) | 3.12 µM (≈ 1.62 µg/mL) | > 50 µM | 1.56 µM (≈ 0.812 µg/mL) | 0.781 µM (≈ 0.406 µg/mL) | 3.12 µM (≈ 1.62 µg/mL) | 1.56 µM (≈ 0.812 µg/mL) | 85800 ± 39900 ng·h/mL | Cmax (in vivo): 10600 ± 2610 ng/mL; Tmax (in vivo): 4 h; half-life (in vivo): 9.55 ± 2.83 h |
| CCn1cc(C(=O)O)c(=O)c2cc(F)c(N3CCNCC3)cc21 [Norfloxacin, reference compound] | > 50 µM | 3.12 µM (≈ 0.998 µg/mL) | 6.25 µM (≈ 2 µg/mL) | 25 µM (≈ 7.98 µg/mL) | 6.25 µM (≈ 2 µg/mL) | 25 µM (≈ 7.98 µg/mL) | > 50 µM | > 50 µM | ≤ 0.391 µM | 6.25 µM (≈ 2 µg/mL) | 3.12 µM (≈ 0.998 µg/mL) | 3.12 µM (≈ 0.998 µg/mL) | 3.12 µM (≈ 0.998 µg/mL) | 3.12 µM (≈ 0.998 µg/mL) | > 50 µM | 1.56 µM (≈ 0.499 µg/mL) | 0.781 µM (≈ 0.249 µg/mL) | 1.56 µM (≈ 0.499 µg/mL) | 3.12 µM (≈ 0.998 µg/mL) | – | – |
| O=C(O)c1cn(C2CC2)c2cc(N3CCN(CC4CCOc5cc(Cl)ccc5C4=O)CC3)c(F)cc2c1=O (centres unmarked) [Compound 6, 7-[4-(8-Chloro-5-oxo-2,3,4,5-tetrahydro-benzo[b]oxepin-4-ylmethyl)-piperazin-1-yl]-1-cyclopropyl-6-fluoro-4-oxo-1,4-dihydro-quinoline-3-carboxylic acid] | 12.5 µM (≈ 6.75 µg/mL) | 1.56 µM (≈ 0.844 µg/mL) | 0.781 µM (≈ 0.422 µg/mL) | 6.25 µM (≈ 3.37 µg/mL) | 6.25 µM (≈ 3.37 µg/mL) | 6.25 µM (≈ 3.37 µg/mL) | 50 µM (≈ 27 µg/mL) | 50 µM (≈ 27 µg/mL) | ≤ 0.391 µM | 1.56 µM (≈ 0.844 µg/mL) | 0.781 µM (≈ 0.422 µg/mL) | 1.56 µM (≈ 0.844 µg/mL) | 0.781 µM (≈ 0.422 µg/mL) | 1.56 µM (≈ 0.844 µg/mL) | 25 µM (≈ 13.5 µg/mL) | 0.781 µM (≈ 0.422 µg/mL) | ≤ 0.391 µM | 3.12 µM (≈ 1.69 µg/mL) | 0.781 µM (≈ 0.422 µg/mL) | 7400 ± 1780 ng·h/mL | Cmax (in vivo): 2360 ± 1070 ng/mL; Tmax (in vivo): 1.33 ± 0.53 h; half-life (in vivo): 1.66 ± 0.73 h |
